Data reported in ChEMBL document CHEMBL1201862, “PubChem BioAssay data set” (2004).
The source made the active and inactive calls.

Key:
[1] = tested on: Streptococcus; assay: Group A Streptococcus viability loss, dose response, counter-screen for streptokinase expression inhibitor project, luminescence, BacTiterGlo (AID 1915); assay type: functional, organism-based;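 further: potency for reduction of bacterial viability or growth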
[2] = molecular target: T1, Protein skinhead-1 (Caenorhabditis elegans, UniProt P34707); assay type: functional
T1 sequence (P34707 whole entry): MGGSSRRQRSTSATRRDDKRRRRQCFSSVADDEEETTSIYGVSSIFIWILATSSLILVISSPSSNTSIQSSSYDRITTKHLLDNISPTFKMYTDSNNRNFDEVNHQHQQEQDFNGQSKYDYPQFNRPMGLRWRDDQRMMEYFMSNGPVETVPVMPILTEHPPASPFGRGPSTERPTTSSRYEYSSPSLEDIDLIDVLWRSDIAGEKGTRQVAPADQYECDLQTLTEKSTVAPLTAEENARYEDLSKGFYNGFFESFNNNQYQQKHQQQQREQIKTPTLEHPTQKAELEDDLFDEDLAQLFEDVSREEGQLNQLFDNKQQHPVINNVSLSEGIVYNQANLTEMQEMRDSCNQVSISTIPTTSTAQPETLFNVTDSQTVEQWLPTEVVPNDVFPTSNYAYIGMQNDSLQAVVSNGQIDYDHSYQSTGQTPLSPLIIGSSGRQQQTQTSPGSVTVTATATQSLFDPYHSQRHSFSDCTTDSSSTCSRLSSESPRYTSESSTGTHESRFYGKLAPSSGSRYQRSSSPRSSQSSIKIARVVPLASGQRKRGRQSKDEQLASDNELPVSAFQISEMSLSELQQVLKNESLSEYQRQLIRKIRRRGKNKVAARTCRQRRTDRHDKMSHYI

[3] = cells
[4] = tested on: Streptococcus sp. 'group A'; assay: growth inhibition of control SK(-) GAS strain, dose response, counter-screen for streptokinase expression inhibitor project, luminescence, kanamycin, BacTiterGlo, confirmation (AID 1900); assay type: functional, organism-based
[5] = LGR2 antagonists, dose response, cell-based, HEK293, CRE-luciferase reporter, cherry pick, set 2 (AID 743343); assay type: functional;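 further: transfected cells were stimulated with diluted bursicon conditioned medium after compound addition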
[6] = A549 cell cytotoxicity, dose response, cytotoxicity control, plate reader, cherry-pick, antagonist series (AID 743412); assay type: functional, cell-based
[7] = MC4R antagonists, dose response, counter-screen for LGR2 antagonist project, cell-based, plate reader, cherry pick (AID 743444); assay type: functional;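 further: transfected HEK 293 cells stimulated with alpha-MSH peptide; potency of inhibitors of the alpha-MSH evoked signal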
[8] = HepG2 cell cytotoxicity, dose response, cytotoxicity control, plate reader, cherry-pick, antagonist series (AID 743416); assay type: functional, cell-based
[9] = HEp-2 cell cytotoxicity, dose response, cytotoxicity control for RSV inhibitor project, HTS (AID 2410); assay type: functional; conditions: human respiratory syncytial virus
[10] = molecular target: T2, Streptokinase A (Streptococcus pyogenes serotype M1, UniProt P10520); assay: S. pyogenes streptokinase expression inhibitors, potency, dose response, plasminogen activation absorbance, OD405 (AID 1914); assay type: functional, Streptococcus pyogenes M1 GAS;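 further: secreted streptokinase activity via plasminogen activation per viability signal from cell pellet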
T2 sequence (P10520 whole entry): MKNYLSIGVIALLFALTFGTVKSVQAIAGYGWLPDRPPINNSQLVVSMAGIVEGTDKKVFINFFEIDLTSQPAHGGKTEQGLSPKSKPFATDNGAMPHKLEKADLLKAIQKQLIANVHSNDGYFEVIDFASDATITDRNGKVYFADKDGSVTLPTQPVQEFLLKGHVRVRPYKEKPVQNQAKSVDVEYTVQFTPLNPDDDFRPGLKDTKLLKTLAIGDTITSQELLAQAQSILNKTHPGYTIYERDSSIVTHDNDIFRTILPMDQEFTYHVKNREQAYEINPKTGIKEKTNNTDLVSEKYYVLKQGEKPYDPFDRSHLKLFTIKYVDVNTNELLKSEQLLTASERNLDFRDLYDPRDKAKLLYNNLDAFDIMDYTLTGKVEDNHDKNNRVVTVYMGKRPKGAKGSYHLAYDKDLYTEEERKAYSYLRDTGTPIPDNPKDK

[11] = molecular target: T3, Trace amine-associated receptor 1 (Homo sapiens, UniProt Q96RJ0); assay: Fluorescence-based cell-based high throughput dose response assay to identify agonists of the human trace amine associated receptor 1 (TAAR1).; assay type: functional
T3 sequence (Q96RJ0 whole entry): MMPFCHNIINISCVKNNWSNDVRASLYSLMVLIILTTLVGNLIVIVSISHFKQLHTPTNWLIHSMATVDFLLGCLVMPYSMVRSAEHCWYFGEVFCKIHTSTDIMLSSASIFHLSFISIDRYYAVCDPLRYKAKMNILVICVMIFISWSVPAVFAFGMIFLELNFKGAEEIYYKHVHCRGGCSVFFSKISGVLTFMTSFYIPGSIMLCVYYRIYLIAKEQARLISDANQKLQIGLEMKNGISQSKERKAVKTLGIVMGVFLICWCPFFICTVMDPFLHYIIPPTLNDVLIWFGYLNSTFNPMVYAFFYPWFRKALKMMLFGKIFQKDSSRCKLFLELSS

[12] = cells; assay type: functional, cell-based
[13] = molecular target: T3, Trace amine-associated receptor 1; assay: Counterscreen for agonists of the human trace amine associated receptor 1 (hTAAR1): Fluorescence-based cell-based high throughput dose response assay to identify hTAAR1 agonist that also desensitize TAAR1 receptor response.; assay type: functional
[14] = cells; assay type: functional, cell-based; remark: listed apart in the source
[15] = IGROV1 ovarian cancer cell cytotoxicity, dose response, PAX8 inhibitor project, plate reader, dry powder samples (AID 743043); assay type: functional, cell-based; conditions: IGROV-1
[16] = NIH:OVCAR-3 ovarian cancer cell cytotoxicity, dose response, PAX8 inhibitor project, plate reader, dry powder samples (AID 743044); assay type: functional, cell-based
[17] = HEK293T cytotoxicity, dose response, cytotoxicity control for miR-122 modulator project, cell-based, inhibitor set, cherry-pick, set 2 (AID 720697); assay type: functional
[18] = cytotoxicity in OVCAR8 ovarian cancer cells, dose response, PAX8 project, cell-based, plate reader, dry powder samples (AID 743197); assay type: functional; conditions: OVCAR-8
[19] = miR-122 activators in hepatoma reporter cells, dose response, cell-based, Huh7 psiCHECK-miR122, Renilla luciferase, cherry-picked (AID 651956); assay type: functional;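 further: huh7 hepatoma cells stably carrying a psiCHECK-2 miR-122 sensor plasmid; renilla luciferase signal reporting endogenous miR-122 activity after 48 h compound exposure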
[20] = HEK293T cytotoxicity, dose response, cytotoxicity control for miR-122 modulator project, cell-based, activator set, cherry-pick (AID 720690); assay type: functional;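 further: HEK293T human cells scored for general mammalian cytotoxicity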
[21] = molecular target: T4, Protein RecA (Mycobacterium tuberculosis, UniProt P9WHJ3); assay: Fluorescence Cell-Free Homogeneous Dose Retest to Identify Inhibitors of RecA-Intein Splicing Activity. [Related pubchem assays (depositor defined):AID2097, AID2223, AID489010, AID492950]; assay type: functional
T4 sequence (P9WHJ3 whole entry): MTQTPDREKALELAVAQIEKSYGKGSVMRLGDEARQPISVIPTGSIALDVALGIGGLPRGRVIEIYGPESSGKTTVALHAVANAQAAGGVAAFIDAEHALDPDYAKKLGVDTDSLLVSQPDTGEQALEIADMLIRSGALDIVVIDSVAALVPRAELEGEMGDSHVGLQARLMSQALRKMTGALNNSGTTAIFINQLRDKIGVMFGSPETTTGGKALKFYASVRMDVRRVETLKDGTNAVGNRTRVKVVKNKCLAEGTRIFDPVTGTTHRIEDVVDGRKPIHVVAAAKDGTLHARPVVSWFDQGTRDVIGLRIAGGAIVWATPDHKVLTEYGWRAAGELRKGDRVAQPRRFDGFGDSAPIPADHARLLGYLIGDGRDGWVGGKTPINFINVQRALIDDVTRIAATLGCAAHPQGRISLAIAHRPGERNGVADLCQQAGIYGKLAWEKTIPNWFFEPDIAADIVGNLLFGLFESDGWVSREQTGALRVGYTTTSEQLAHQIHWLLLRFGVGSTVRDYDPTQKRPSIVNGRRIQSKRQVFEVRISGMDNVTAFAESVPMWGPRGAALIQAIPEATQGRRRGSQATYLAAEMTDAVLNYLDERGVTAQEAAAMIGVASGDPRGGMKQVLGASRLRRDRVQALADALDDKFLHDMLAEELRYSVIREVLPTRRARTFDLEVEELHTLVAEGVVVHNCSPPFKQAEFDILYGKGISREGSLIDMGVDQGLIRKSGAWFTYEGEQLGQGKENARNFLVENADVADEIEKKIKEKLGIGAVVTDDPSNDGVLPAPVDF

[22] = molecular target: T5, Replicative DNA helicase DnaB (Mycobacterium tuberculosis, UniProt P9WMR3); assay: DnaB intein splicing inhibitors, dose response, biochemical, cell-free fluorescence (AID 449749); assay type: functional
T5 sequence (P9WMR3 whole entry): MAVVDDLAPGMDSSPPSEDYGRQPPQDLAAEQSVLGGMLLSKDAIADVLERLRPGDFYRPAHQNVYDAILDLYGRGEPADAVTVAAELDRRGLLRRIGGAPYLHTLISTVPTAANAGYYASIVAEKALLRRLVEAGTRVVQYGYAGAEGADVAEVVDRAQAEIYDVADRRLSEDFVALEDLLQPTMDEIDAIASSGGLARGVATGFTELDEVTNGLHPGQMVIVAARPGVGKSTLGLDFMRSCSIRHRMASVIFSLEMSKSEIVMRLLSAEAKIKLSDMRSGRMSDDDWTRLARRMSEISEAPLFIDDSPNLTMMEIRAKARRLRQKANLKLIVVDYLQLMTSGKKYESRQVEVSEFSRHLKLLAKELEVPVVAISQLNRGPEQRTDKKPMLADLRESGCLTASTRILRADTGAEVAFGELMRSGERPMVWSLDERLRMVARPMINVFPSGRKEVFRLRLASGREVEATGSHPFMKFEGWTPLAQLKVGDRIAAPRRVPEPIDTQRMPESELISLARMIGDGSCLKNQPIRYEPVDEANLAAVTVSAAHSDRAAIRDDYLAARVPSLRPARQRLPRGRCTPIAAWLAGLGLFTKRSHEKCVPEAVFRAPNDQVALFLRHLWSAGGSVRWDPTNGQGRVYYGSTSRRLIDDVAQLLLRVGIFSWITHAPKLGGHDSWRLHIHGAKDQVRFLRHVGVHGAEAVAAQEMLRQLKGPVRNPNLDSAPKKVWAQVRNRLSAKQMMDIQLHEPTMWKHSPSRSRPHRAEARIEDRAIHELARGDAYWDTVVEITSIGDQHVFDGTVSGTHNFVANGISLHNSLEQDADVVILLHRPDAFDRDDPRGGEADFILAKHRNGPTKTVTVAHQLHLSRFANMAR

[23] = cells; assay type: functional, cell-based; conditions: HEK-CNG
[24] = molecular target: Galanin receptor type 3 (Homo sapiens, UniProt O60755); assay: Fluorescence-based cell-based primary high throughput dose response assay to identify antagonists of the Galanin Receptor 3 (GalR3).; assay type: functional
[25] = HepG2 cell cytotoxicity, dose response, cytotoxicity control, ATP luminescence, cherry-pick, activator set 2 (AID 1053143); assay type: functional, cell-based

Chain of Galanin receptor type 3 (O60755 whole entry): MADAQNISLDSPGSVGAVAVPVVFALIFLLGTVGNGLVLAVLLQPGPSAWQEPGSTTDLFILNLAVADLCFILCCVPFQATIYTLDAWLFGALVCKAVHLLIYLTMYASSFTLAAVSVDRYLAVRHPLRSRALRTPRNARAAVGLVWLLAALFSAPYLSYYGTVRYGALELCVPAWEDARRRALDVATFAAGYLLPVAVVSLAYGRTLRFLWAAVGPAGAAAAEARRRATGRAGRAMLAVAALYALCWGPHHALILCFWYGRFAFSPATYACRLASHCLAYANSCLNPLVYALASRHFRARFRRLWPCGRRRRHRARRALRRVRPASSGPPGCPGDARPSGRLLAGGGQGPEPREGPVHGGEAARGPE

Cc1ccc2nc(-c3ccc(N)cc3)sc2c1
EC50 [1]: > 150 µM (not active)
IC50 [2]: > 100 µM (inactive)
IC50 [3]: 29.7 µM (active)
EC50 [4]: > 150 µM (not active)
AC50 [5]: 1.88 µM (active)
AC50 [6]: 51.3 µM (active)
AC50 [7]: 1.55 µM (active)
AC50 [8]: 50.6 µM (active)
CC50 [9]: > 50 µM (active)
EC50 [10]: > 150 µM (not active)

O=C(NCCc1ccccc1)C1CCCN(S(=O)(=O)c2cccc3nsnc23)C1 (stereo not given)
EC50 [11]: 0.669 µM (active)
EC50 [12]: > 29.9 µM (inactive)
IC50 [13]: 2.2 µM (active)
IC50 [14]: > 29.9 µM (inactive)

C[C@H]1CCCCO[C@H](CN(C)Cc2ccccc2)[C@@H](C)CN([C@@H](C)CO)C(=O)c2cc(NC(=O)Nc3ccc(C(F)(F)F)cc3)ccc2O1
AC50 [15]: 23.4 µM (active)
AC50 [16]: 22.8 µM (active)
AC50 [17]: 8.18 µM (active)
AC50 [18]: 21.4 µM (active)
AC50 [19]: 6.32 µM (active)
AC50 [20]: 11.3 µM (active)

Cc1cc(C)c(C#N)c(SCc2n[nH]c3c2C(c2ccc(F)cc2)C(C#N)=C(N)O3)n1 (stereo not given)
EC50 [21]: 11.2 µM (active)
AC50 [22]: 6.74 µM (active)
EC50 [23]: > 29.9 µM (inactive)
IC50 [24]: > 29.9 µM (inactive)

O=C(Nc1ccc2c(c1)CCC2)Nc1ccccc1Cl
AC50 [25]: 26 µM (active)
